Source: US20200325453A1, “METHOD FOR PRODUCING NAÏVE PLURIPOTENT STEM CELLS” (priority 2015, published 2020)

How the values were obtained:
[1] = system: ESRRB; assay: ESRRB gene expression by qPCR, effect of Forskolin and A83-01 on making naïve (Example 4); type: cell-based, human; conditions: 201B7 cells; 10 μM Forskolin and 0.5 μM A83-01 added to 2iL+Go6983 medium
[2] = system: ESRRB; assay: ESRRB gene expression by qPCR, effect of Go6983 addition timing (Example 3); type: cell-based, human; conditions: 201B7 cells passage 1; KSR 2iLFA medium with Go6983 (5 μM) versus without; doxycycline added; low oxygen
Method: The iPS cells gene-introduced and cloned in “1.2 Generation of gene-introduced cell line” were dissociated into single cells by using a dissociation solution and TrypLE™ Select, and seeded in a 6-well plate at 1×10^5 cells/well in which MEF cells had been seeded as feeder. At this time, as a medium, 2iLFA+Go6983 medium shown in Table 1 (hereinafter, also abbreviated as “the medium of the present invention”) was used, and cultured in low oxygen in a state in which doxycycline (1 μg/mL) was further added so as to induce expression of the introduced gene (Passage 1; P1). Note here that on the first day of the start of making naïve, Y27632 (ROCK inhibitor) was added so as to be 10 μM, […]. On day 5 to 7 after the start of making naïve, subculturing was performed. The medium was removed, and then 350 μL of 0.25% Trypsin-EDTA was added in each well to cause reaction for one minute at 37° C. The reaction was stopped by Trypsin Inhibitor, and then 5 mL of medium was added thereto. Pipetting was carried out several times using PIPETTE AID to detach colonies of iPS cells from a sheet of feeder cells. The colonies were collected in a 15-mL tube. After centrifugation, a supernatant was removed, and 200 μL of medium was added, followed by pipetting using P200 […] about 40 times to be dissociated into single cells. […]

Row | SMILES | maintenance of the naïve state of iPS cells after stopping induction of expression of the introduced gene [1] | expression of ESRRB [2]
1 | Cc1cccc(-c2nn(C(=S)Nc3ccccc3)cc2-c2ccnc3ccccc23)n1 [A83-01, 3-(6-methyl-2-pyridinyl)-N-phenyl-4-(4-quinolinyl)-1H-pyrazole-1-carbothioamide] | needed in order to maintain the naïve state of the iPS cells | 
2 | COc1ccc2c(c1)c(C1=C(c3c[nH]c4ccccc34)C(=O)NC1=O)cn2CCCN(C)C [Go6983, 3-[1-[3-(dimethylamino)propyl]-5-methoxy-1H-indole-3-yl]-4-(1H-indole-3-yl)-1H-pyrrole-2,5-dione] |  | higher expression of ESRRB
